Test results: ChEMBL document CHEMBL3352702, “Design, synthesis and in vitro antikinetoplastid evaluation of N-acylated putrescine, spermidine and spermine derivatives” (Bioorg Med Chem Lett, 2015)

Columns and labels:
Trypanosoma brucei = assay: Antikinetoplastid activity against Trypanosoma brucei gambiense assessed as parasite growth inhibition; type: functional, organism-based
Leishmania donovani = assay: Antikinetoplastid activity against Leishmania donovani LV9 […] amastigotes in mouse RAW264.7 cells assessed as viability measured 24 hrs by SYBR green assay; type: functional, organism-based; conditions: LV9, RAW264.7, 24 h
RAW264.7 = assay: Cytotoxicity against mouse RAW264.7 cells assessed as reduction in cell viability up to 100 uM; type: cell-based
[1] = Selectivity index, ratio of cytotoxicity against mouse RAW264.7 cells to IC50 for Trypanosoma brucei gambiense; type: toxicity, cell-based; conditions: read-out: Selectivity Index

| Structure (SMILES) | IC50 (Trypanosoma brucei) [µM] | IC50 (Leishmania donovani) [µM] | Activity (RAW264.7) | selectivity ratio [1] |
| --- | --- | --- | --- | --- |
| COCC(=O)NCCCNCCCCN.Cl | > 100 | 5.47 | Non-toxic |  |
| COCC(=O)NCCCCNCCCN.Cl | 15.6 | 50 | Non-toxic |  |
| COCC(=O)N(CCCCNC(=O)OC(C)(C)C)CCCNC(=O)OC(C)(C)C | > 100 | > 100 | Non-toxic |  |
| CC(=O)NCCSCC(=O)NCCCNCCCCN.Cl | 14.8 | 70.8 | Non-toxic |  |
| COCC(=O)NCCCCN(CCCNC(=O)OC(C)(C)C)C(=O)OC(C)(C)C | > 100 | > 100 | Non-toxic |  |
| COCC(=O)NCCCCN.Cl | > 100 | > 100 | Non-toxic |  |
| CC(=O)NCCC(=O)NCCSCC(=O)NCCCNCCCCN.Cl | 11.5 | > 100 | Non-toxic |  |
| COCC(=O)NCCCCNC(=O)OC(C)(C)C | > 100 | > 100 | Non-toxic |  |
| CCCCCCCCCCCCCCCCOP(=O)([O-])OCC[N+](C)(C)C [MILTEFOSINE] |  | 10.2 |  |  |
| N=C(N)c1ccc(OCCCCCOc2ccc(C(=N)N)cc2)cc1 [PENTAMIDINE] | 0.011 | 4.21 |  |  |
| CC(C)(C)OC(=O)NCCCCN(CCC#N)C(=O)OC(C)(C)C | > 100 | > 100 | Non-toxic |  |
| CC(C)(C)OC(=O)NCCCCN | > 100 | > 100 | Non-toxic |  |
| CC(=O)NCCC(=O)NCCSCC(=O)NCCCNCCCCNCCCN.Cl | 2.98 | > 100 | Non-toxic |  |
| COCC(=O)NCCCN(CCCCNC(=O)OC(C)(C)C)C(=O)OC(C)(C)C | > 100 | > 100 | Non-toxic |  |
| CC(C)(C)OC(=O)NCCCCN(CCCN)C(=O)OC(C)(C)C | 11.6 | > 100 | Non-toxic |  |
| COCC(=O)N(CCCN)CCCCN.Cl | > 100 | > 100 | Non-toxic |  |
| CC(=O)NCCSCC(=O)NCCCCNCCCN.Cl | 5.75 | > 100 | Non-toxic |  |
| CC(=O)NCCSCC(=O)NCCCNCCCCNCCCN.Cl | 1.92 | > 100 | Non-toxic | > 52 |
| CC(C)(C)OC(=O)NCCCCNCCCNC(=O)OC(C)(C)C | > 100 | > 100 | Non-toxic |  |
